Structures can show the parent of a compound that is named as a salt.

One data set is described as follows: in vitro. Particulars: rat, gh3-tre-luc cells, AC50 (uM) modified / 1000.
Broadly, the CC50 is the concentration that lowers cell viability or growth by half. Compound `CCCCCCOC(=O)c1ccccc1` [Hexyl benzoate] returned a CC50 at 24 h greater than 90 µM.

In turn, `CCCCCCOC(=O)CCC` [Hexyl butyrate] gave a CC50 at 24 h greater than 90 µM.

In turn, `CCCCCC/C(C=O)=C\c1ccccc1` [Hexyl cinnamic aldehyde] gave a 50% cytotoxic concentration (CC50) at 24 h greater than 90 µM.

In the case of `CCCCCCOC(=O)CCCCC` [Hexyl hexanoate], the 50% cytotoxic concentration (CC50) at 24 h was greater than 90 µM.

As to `CCCCCCOC(=O)C(C)C` [Hexyl isobutyrate], the half-maximal cytotoxic concentration (CC50) at 24 h was greater than 90 µM.

As to `C=C(C)C(=O)OCCCCCC` [Hexyl methacrylate], the half-maximal cytotoxic concentration (CC50) at 24 h is greater than 90 µM.

In turn, `CCCCCCOC(=O)c1cccnc1` [Hexyl nicotinate] came in with a CC50 at 24 h greater than 50 µM.

As to `CCCCCCCC(=O)OCCCCCC` [Hexyl octanoate], the CC50 at 24 h is greater than 90 µM.

`CCCCCCOC(=O)CC` [Hexyl propanoate]: the CC50 at 24 h was greater than 90 µM.

The compound `CCCCCCOC(=O)c1ccccc1O` [Hexyl salicylate] registered a CC50 at 24 h greater than 90 µM.

With `CC(CNC1CCCCC1)OC(=O)c1ccccc1` (stereo not shown) [Hexylcaine hydrochloride], the 50% cytotoxic concentration (CC50) at 24 h is greater than 20 µM.

`CCCCCCOC(=O)c1ccc(O)cc1` [Hexylparaben] yielded a CC50 at 24 h of 56.8 µM.

`O=C(O)CNC(=O)c1ccccc1` [Hippuric acid] had a 50% cytotoxic concentration (CC50) at 24 h greater than 50 µM.

In the case of `NCCc1c[nH]cn1` [Histamine], the half-maximal cytotoxic concentration (CC50) at 24 h was greater than 50 µM.

On to `CN1CCCN(C(c2ccccc2)c2ccc(Cl)cc2)CC1` (stereo not shown) [Homochlorcyclizine], for which half-maximal cytotoxicity (CC50 at 24 h) was put at 7.44 µM.

As for `CN(C)CCc1ccc(O)cc1` [Hordenine], the half-maximal cytotoxic concentration (CC50) at 24 h is greater than 50 µM.

`C/C=C1\[C@H]2C=C(C)C[C@]1(N)c1ccc(=O)[nH]c1C2` [Huperzine A] registered a cytotoxic concentration (CC50) at 24 h greater than 50 µM.

For the compound `CCN(CC)CCNc1ccc(CO)c2sc3ccccc3c(=O)c12` [Hycanthone], the 50% cytotoxic concentration (CC50) at 24 h worked out at 2.88 µM.

As to `CC1(C)CNC(=NN=C(/C=C/c2ccc(C(F)(F)F)cc2)/C=C/c2ccc(C(F)(F)F)cc2)NC1` [Hydramethylnon], it took 11.2 µM to reach half-maximal cytotoxicity (CC50 at 24 h).

For `CN1CCc2cc3c(cc2C1O)OCO3` (stereo not shown) [Hydrastinine hydrochloride], the CC50 at 24 h is greater than 90 µM.

Take `NNC(=O)OCc1ccccc1` [Hydrazinecarboxylic acid, phenylmethyl ester]: the cytotoxic concentration (CC50) at 24 h is greater than 90 µM.

As for `NS(=O)(=O)c1cc2c(cc1Cl)NCNS2(=O)=O` [Hydrochlorothiazide], the half-maximal cytotoxic concentration (CC50) at 24 h was greater than 90 µM.

`O=C(O)CCc1ccccc1` [Hydrocinnamic acid] returned a CC50 at 24 h greater than 90 µM.

Compound `COc1ccc2c3c1O[C@H]1C(=O)CC[C@H]4[C@@H](C2)N(C)CC[C@]314` [Hydrocodone phosphate (2:3) monohydrate] yielded a CC50 at 24 h greater than 50 µM.

With `CCCC(=O)O[C@]1(C(=O)CO)CC[C@H]2[C@@H]3CCC4=CC(=O)CC[C@]4(C)[C@H]3[C@@H](O)C[C@@]21C` [Hydrocortisone 17-butyrate], the CC50 at 24 h was greater than 50 µM.

For `C[C@]12CCC(=O)C=C1CC[C@@H]1[C@@H]2[C@@H](O)C[C@@]2(C)[C@H]1CC[C@]2(O)C(=O)COC(=O)CCC(=O)O` [Hydrocortisone 21-hemisuccinate sodium salt], the CC50 at 24 h was greater than 50 µM.

Compound `CC(=O)OCC(=O)[C@@]1(O)CC[C@H]2[C@@H]3CCC4=CC(=O)CC[C@]4(C)[C@H]3[C@@H](O)C[C@@]21C` [Hydrocortisone acetate] registered a 50% cytotoxic concentration (CC50) at 24 h greater than 50 µM.

`CCCC(=O)O[C@]1(C(=O)COC(=O)CC)CC[C@H]2[C@@H]3CCC4=CC(=O)CC[C@]4(C)[C@H]3[C@@H](O)C[C@@]21C` [Hydrocortisone buteprate]: the CC50 at 24 h is greater than 50 µM.

As to `C[C@]12CCC(=O)C=C1CC[C@@H]1[C@@H]2[C@@H](O)C[C@@]2(C)[C@H]1CC[C@]2(O)C(=O)COP(=O)(O)O` [Hydrocortisone sodium phosphate], the half-maximal cytotoxic concentration (CC50) at 24 h was greater than 50 µM.

For `CCCCC(=O)O[C@]1(C(=O)CO)CC[C@H]2[C@@H]3CCC4=CC(=O)CC[C@]4(C)[C@H]3[C@@H](O)C[C@@]21C` [Hydrocortisone valerate], the CC50 at 24 h was greater than 50 µM.

In turn, `C[C@]12CCC(=O)C=C1CC[C@@H]1[C@@H]2[C@@H](O)C[C@@]2(C)[C@H]1CC[C@]2(O)C(=O)CO` [Hydrocortisone] gave a CC50 at 24 h greater than 90 µM.

In turn, `COc1c2c(cc3c1OCO3)CCN(C)C2` [Hydrocotarnine hydrobromide] showed a CC50 at 24 h greater than 20 µM.

In turn, `NS(=O)(=O)c1cc2c(cc1C(F)(F)F)NCNS2(=O)=O` [Hydroflumethiazide] gave a CC50 at 24 h greater than 20 µM.

As to `COc1ccc(OC)cc1` [Hydroquinone dimethyl ether], the 50% cytotoxic concentration (CC50) at 24 h was greater than 90 µM.

`CC(N)Cc1ccc(O)cc1` (stereo not shown) [Hydroxyamphetamine hydrobromide]: the cytotoxic concentration (CC50) at 24 h is greater than 50 µM.

The compound `CCN(CCO)CCCC(C)Nc1ccnc2cc(Cl)ccc12` (stereo not shown) [Hydroxychloroquine sulfate] yielded a CC50 at 24 h greater than 50 µM.

In turn, `CC(CC=O)CCCC(C)(C)O` (stereo not shown) [Hydroxycitronella] showed a CC50 at 24 h greater than 90 µM.

`COC(CC(C)CCCC(C)(C)O)OC` (stereo not shown) [Hydroxycitronellal dimethyl acetal] displayed a CC50 at 24 h greater than 90 µM.

As to `O=C1NCCN1CCO` [Hydroxyethyl imidazolidinone], the half-maximal cytotoxic concentration (CC50) at 24 h is greater than 100 µM.

On to `OCCOC[C@H]1O[C@H](OCCO)[C@H](OCCO)[C@@H](OCCO)[C@@H]1OCCO` [Hydroxyethyl starch], for which the CC50 at 24 h is greater than 50 µM.

In turn, `CC(C)(O)C(=O)Nc1ccc([N+](=O)[O-])c(C(F)(F)F)c1` [Hydroxyflutamide] displayed a cytotoxic concentration (CC50) at 24 h greater than 90 µM.

Regarding `O=S(O)CO` [Hydroxymethanesulfinic acid monosodium salt dihydrate], the CC50 at 24 h was greater than 50 µM.

The compound `C=C(C)C(=O)OC(C)CO` (stereo not shown) [Hydroxypropyl methacrylate] had a CC50 at 24 h greater than 90 µM.

`N=C(N)c1ccc(/C=C/c2ccc(C(=N)N)cc2O)cc1` [Hydroxystilbamidine bis(methanesulfonate)] had a CC50 at 24 h greater than 50 µM.

For `Nc1c2c(nc3ccccc13)CCCC2O` (stereo not shown) [Hydroxytacrine maleate], the half-maximal cytotoxic concentration (CC50) at 24 h was greater than 50 µM.

For `NC(=O)NO` [Hydroxyurea], the CC50 at 24 h is greater than 90 µM.

Regarding `CC1=C2[C@@H]([C@H](C)CC[C@H]2/C=C(\C)C(=O)O)[C@H](O)C1` [Hydroxyvalerenic acid], the half-maximal cytotoxic concentration (CC50) at 24 h is greater than 90 µM.

The compound `CN[C@H]1C[C@@H](N)[C@H](O)[C@@H](O[C@@H]2O[C@H](CO)[C@H](O)[C@@H]3OC4(O[C@H]23)O[C@H]([C@@H](N)CO)[C@H](O)[C@H](O)[C@H]4O)[C@@H]1O` (stereo partly shown) [Hygromycin B] returned a CC50 at 24 h greater than 50 µM.

Compound `Cc1cc(O)no1` [Hymexazol] had a CC50 at 24 h greater than 100 µM.

`O=c1[nH]cnc2nc[nH]c12` [Hypoxanthine] came in with a CC50 at 24 h greater than 50 µM.

`CC(CN1CC(=O)NC(=O)C1)N1CC(=O)NC(=O)C1` (stereo not shown) [ICRF-159] showed a CC50 at 24 h greater than 90 µM.

Compound `CCCCCN(C)CCC(O)(P(=O)(O)O)P(=O)(O)O` [Ibandronate sodium] returned a CC50 at 24 h greater than 50 µM.

`CC[C@H]1C[C@@H]2C[C@H]3c4[nH]c5ccc(OC)cc5c4CCN(C2)[C@@H]13` [Ibogaine hydrochloride] came in with a CC50 at 24 h of 62.4 µM.

For `CC(C)C(=O)c1c(C(C)C)nn2ccccc12` [Ibudilast], the half-maximal cytotoxic concentration (CC50) at 24 h is greater than 50 µM.

Turning to `CC(C)Cc1ccc(CC(=O)O)cc1` [Ibufenac], the cytotoxic concentration (CC50) at 24 h is greater than 50 µM.

On to `CC(C)Cc1ccc(C(C)C(=O)O)cc1` (stereo not shown) [Ibuprofen], for which the CC50 at 24 h is greater than 90 µM.

`CCCCCCCN(CC)CCCC(O)c1ccc(NS(C)(=O)=O)cc1` (stereo not shown) [Ibutilide fumarate]: it took 21.5 µM to reach half-maximal cytotoxicity (CC50 at 24 h).

For `CCC(C)OC(=O)N1CCCCC1CCO` (stereo not shown) [Icaridin], the CC50 at 24 h was greater than 90 µM.

In turn, `CC(=O)[C@]1(O)Cc2c(O)c3c(c(O)c2[C@@H](O[C@H]2C[C@H](N)[C@H](O)[C@H](C)O2)C1)C(=O)c1ccccc1C3=O` [Idarubicin hydrochloride] showed a 50% cytotoxic concentration (CC50) at 24 h of 0.162 µM.

The compound `c1ccc2c(c1)OCC(C1=NCCN1)O2` (stereo not shown) [Idazoxan] had a half-maximal cytotoxic concentration (CC50) at 24 h of 7.8 µM.

`COC1=C(OC)C(=O)C(CCCCCCCCCCO)=C(C)C1=O` [Idebenone] registered a CC50 at 24 h of 35.2 µM.

On to `O=c1[nH]c(=O)n([C@H]2C[C@H](O)[C@@H](CO)O2)cc1I` [Idoxuridine], for which the CC50 at 24 h was greater than 20 µM.

Turning to `O=C1C2CC3CC1CC(O)(C3)C2` [Idramantone], the half-maximal cytotoxic concentration (CC50) at 24 h is greater than 50 µM.

In turn, `O=C(/C=C/c1ccccc1)NCCO` [Idrocilamide] had a CC50 at 24 h greater than 50 µM.

Regarding `CC(C(O)c1ccc(O)cc1)N1CCC(Cc2ccccc2)CC1` (stereo not shown) [Ifenprodil], the CC50 at 24 h is 19.6 µM.

`CC(C)CCCCCCc1ccc(OCCOCCO)cc1` [Igepal CO-890] yielded a half-maximal cytotoxic concentration (CC50) at 24 h greater than 100 µM.

For the compound `CS(=O)(=O)Nc1cc2occ(NC=O)c(=O)c2cc1Oc1ccccc1` [Iguratimod], the 50% cytotoxic concentration (CC50) at 24 h is greater than 50 µM.

Compound `CC(=O)S[C@H](C(=O)N[C@H]1Cc2ccccc2[C@H]2CCC[C@@H](C(=O)O)N2C1=O)C(C)C` [Ilepatril] returned a CC50 at 24 h greater than 90 µM.

On to `CCCCCCCCCCCCCCCCSCC(COC)COP(=O)([O-])OCC[N+](C)(C)C` (stereo not shown) [Ilmofosine], for which it took 19.3 µM to reach half-maximal cytotoxicity (CC50 at 24 h).

Compound `CNC(=O)[C@H](Cc1c[nH]c2ccccc12)NC(=O)[C@@H](CC(=O)NO)CC(C)C` [Ilomastat] gave a CC50 at 24 h of 1.28 µM.

Consider `COc1cc(C(C)=O)ccc1OCCCN1CCC(c2noc3cc(F)ccc23)CC1` [Iloperidone], for which the CC50 at 24 h stood at 15.2 µM.

For `CC#CCC(C)[C@H](O)/C=C/[C@@H]1[C@H]2C/C(=C/CCCC(=O)O)C[C@H]2C[C@H]1O` (stereo partly shown) [Iloprost], the half-maximal cytotoxic concentration (CC50) at 24 h is greater than 50 µM.

Staying with this data set, now noted: rat, gh3-tre-luc cells, AC50 (uM) modified / 1000, Tox21_110001=Tox21_110539; viability, 1 nM T3 present, 24 h.
In the case of `O=P1(NCCCl)OCCCN1CCCl` (stereo not shown) [Ifosfamide], the CC50 at 24 h is greater than 20 µM.

Staying with this data set, now noted: rat, gh3-tre-luc cells, AC50 (uM) modified / 1000, Tox21_110001=Tox21_200686; viability, 1 nM T3 present, 24 h.
In the case of `COc1ccc2c(c1OC)C(=O)O[C@@H]2[C@H]1c2cc3c(cc2CCN1C)OCO3` [Hydrastine], half-maximal cytotoxicity (CC50 at 24 h) was put at 6.92 µM.

Still in this data set, the particulars now being: rat, gh3-tre-luc cells, AC50 (uM) modified / 1000, Tox21_110001=Tox21_201815; viability, 1 nM T3 present, 24 h.
`O=P1(NCCCl)OCCCN1CCCl` (stereo not shown) [Ifosfamide] showed a CC50 at 24 h greater than 90 µM.

The data set is the same for the next values; noted with them: rat, gh3-tre-luc cells, AC50 (uM) modified / 1000, Tox21_110001=Tox21_301050; viability, 1 nM T3 present, 24 h.
With `C[C@H]1[C@H](c2ccc(Cl)cc2)SC(=O)N1C(=O)NC1CCCCC1` [Hexythiazox], the CC50 at 24 h is 67.8 µM.

The values above are taken from paper PMC6792352, “Limited Chemical Structural Diversity Found to Modulate Thyroid Hormone Receptor in the Tox21 Chemical Library” (Environmental Health Perspectives, 2019).
